# Measurements: patent US20240398970A1, “B7-H3 TARGETING ANTIBODY-DRUG CONJUGATE, AND PREPARATION METHOD THEREFOR AND USE THEREOF” (priority 2020, published 2024)
# pIC50: −log10 of the molar value. Numbered stars: 1 amine (or outer) side, 2 acyl side, 3 side chain; on linkers, the order of the positions; unused ones are H or OH. Square brackets hold non-standard residues; d marks the D form. Peptide text beside a SMILES is read from it. * marks the point of attachment. X1 = CC[C@@]1(O)C(=O)OCc2c1cc1n(c2=O)Cc2c-1nc1cc(F)c(C)c3c1c2C(N*)CC3; Hexanoyl(6-maleimido) = O=C1C=CC(=O)N1CCCCCC(=O)*; NHCH2OCH2CO = O=C(COCN[*:1])[*:2]
# Columns and labels:
# cathepsin B = cathepsin B (Homo sapiens, UniProt P07858); assay: In vitro enzyme digestion of linker-drug conjugates; type: in vitro ADME; conditions: pH 5.0 to 7.0
# Method: The linker-drug conjugate (LE14 and GGFG-Dxd) was co-incubated with cathepsin B in three different pH (5.0, 6.0, 7.0) buffers. Samples were taken at different time points and entered into a high-performance liquid chromatography-mass spectrometry instrument. The external standard method (with DXD as the external standard) was used to determine the release percentage of the drug.
# [1] = Coupling of linker-drug conjugates with other/different antibodies; type: physicochemical; conditions: coupling with antibodies other than or including FDA016
# NCI-N87 cell line = assay: Killing activity on NCI-N87 before and after enzyme digestion by cathepsin B system; type: cell-based; conditions: NCI-N87, 144 hours, after cathepsin B system pH 5.0, 37° C., 4 hours; read-out: IC50 (based on SN-38 equivalent) After Enzyme Digestion
# Method: NCI-N87 cell line was selected as the experimental cell lines. After the sample was incubated in cathepsin B system (100 mM sodium acetate-acetic acid buffer, 4 mM dithiothreitol, pH 5.0) at 37° C. for 4 hours, the obtained sample was diluted with culture medium to different concentrations. 8 concentrations (1.5 to 10-fold dilution) were set from 70 nM to 0.003 nM of SN-38 concentration. […] The IC50 value was calculated by reading the […] data after chemical luminescent staining with CellTiter-Glo® Luminescent Cell Viability Assay.
Structure (SMILES),Speed of enzyme digestion (cathepsin B),Aggregation ratio when coupled with other/different antibodies [1],Precipitation when coupled with other/different antibodies [1],pIC50 (NCI-N87 cell line)
CC[C@@]1(O)C(=O)OCc2c1cc1n(c2=O)Cc2c-1nc1cc(F)c(C)c3c1c2C(NC(=O)COCNC(=O)CNC(=O)[C@H](Cc1ccccc1)NC(=O)CNC(=O)CNC(=O)CCCCCN1C(=O)C=CC1=O)CC3 (stereo partly shown) [GGFG-Dxd] ({Hexanoyl(6-maleimido)}-GGFG[NHCH2OCH2CO]-X1),slow speed of enzyme digestion,high aggregation ratio,produced precipitation,
"CCc1c2c(nc3ccc(O)cc13)-c1cc3c(c(=O)n1C2)COC(=O)[C@]3(O)CC [SN-38, 7-ethyl-10-hydroxycamptothecin]",,,,8.13
